Assay results: US20220162206A1, “NOVEL AZAINDOLE DERIVATIVE” (KOWA COMPANY, LTD., priority 2019, published 2022)

How the values were obtained:
[1] = test system: human non-small cell lung cancer cell line NCI-H460; assay: Antitumor effect in human non-small cell lung cancer cell line NCI-H460 subcutaneously transplanted nude mouse model; format: in vivo, BALB/c-nu/nu mouse; conditions: 300 mg/kg by gavage
Protocol: The antitumor effect of the inventive compound was examined using a human non-small cell lung cancer cell line NCI-H460 subcutaneously transplanted nude mouse model.
A cell culture medium was prepared by adding 5.6 mL of Penicillin-Streptomycin (Sigma-Aldrich Co. LLC), 56 mL of FBS (MP Biomedicals), 5.6 mL of 1 mol/L HEPES (Sigma-Aldrich Co. LLC), 5.6 mL of 100 mmol/L Sodium Pyruvate (Life Technologies), and 1.4 g of D-(+)-Glucose (Wako Pure Chemical Industries, Ltd.) to a RPMI1640 culture medium (Sigma-Aldrich Co. LLC). NCI-H460 cells (American Type Culture Collection) were cultured using the prepared culture medium at 37° C. in a 5% CO2 incubator.
The cultured NCI-H460 cells were suspended in PBS. […]
From the day of grouping, the administration solutions were administered by gavage to mice transplanted with cancer cells (15 mice in each group) for the total of 22 days, once a day on the day of the grouping and the last day and twice a day on other days. […] The administration volume was calculated from the last body weight of each.
The tumor volume of each mouse was calculated by the following equation, and the antitumor effect was evaluated using the tumor volume as the index. […]

CSF-1R (Fms, active) = target: T1, CSF-1R (Fms, active) (Homo sapiens, UniProt P07333); assay: Evaluation of CSF-1R inhibitory activity by TR-FRET method (HTRF KinEASE-TK kit); format: biochemical; conditions: for IC50: TR-FRET method, phosphorylation of substrate peptide, enzyme 0.05 μg/mL; for inhibitory activities against CSF-1R (in words): statement referring to the Test Examples
T1 construct: purchased Eurofins DiscoverX Products, LLC 14-551
Protocol: The CSF-1R inhibitory activity of an inventive compound was evaluated by a TR-FRET method using phosphorylation of a substrate peptide of CSF-1R as the index.
The inventive compound was dissolved in dimethyl sulfoxide sterilized by filtration to prepare a 10 μmol/L solution. This solution was dispensed using an acoustic noncontact type nanoliter dispenser (Echo 550, LABCYTE Inc.) such that the final concentrations were within a range from 0.25 to 180 nmol/L.
The assay was performed using an HTRF™ KinEASE™-TK kit (Cisbio Bioassays, 62TK0PEC) by the procedure in accordance with the manual (62TK0PEC rev04(2009)). In the assay, a 384-well plate (Greiner 784076 Black 384 well, Small volume, Greiner Bio-One International GmbH) was used. The enzyme was Fms, active (14-551, Eurofins DiscoverX Products, LLC), which was prepared such that the final concentration was 0.05 μg/mL. TR-FRET measurement (fluorescence of 620 nm and 665 nm) was performed using an HTRF-dedicated microplate reader (K-101, Kyoritsu Radio Service Co., Ltd.). The proportion of the fluorescence quantity at each wavelength as the index of phosphorylation [((quantity of 665 nm fluorescence)/(quantity of 620 nm fluorescence))×10,000] was calculated, and the IC50 value was determined by statistical treatment of the proportion of the fluorescence quantity at each compound concentration.

T1 sequence (P07333 20-972): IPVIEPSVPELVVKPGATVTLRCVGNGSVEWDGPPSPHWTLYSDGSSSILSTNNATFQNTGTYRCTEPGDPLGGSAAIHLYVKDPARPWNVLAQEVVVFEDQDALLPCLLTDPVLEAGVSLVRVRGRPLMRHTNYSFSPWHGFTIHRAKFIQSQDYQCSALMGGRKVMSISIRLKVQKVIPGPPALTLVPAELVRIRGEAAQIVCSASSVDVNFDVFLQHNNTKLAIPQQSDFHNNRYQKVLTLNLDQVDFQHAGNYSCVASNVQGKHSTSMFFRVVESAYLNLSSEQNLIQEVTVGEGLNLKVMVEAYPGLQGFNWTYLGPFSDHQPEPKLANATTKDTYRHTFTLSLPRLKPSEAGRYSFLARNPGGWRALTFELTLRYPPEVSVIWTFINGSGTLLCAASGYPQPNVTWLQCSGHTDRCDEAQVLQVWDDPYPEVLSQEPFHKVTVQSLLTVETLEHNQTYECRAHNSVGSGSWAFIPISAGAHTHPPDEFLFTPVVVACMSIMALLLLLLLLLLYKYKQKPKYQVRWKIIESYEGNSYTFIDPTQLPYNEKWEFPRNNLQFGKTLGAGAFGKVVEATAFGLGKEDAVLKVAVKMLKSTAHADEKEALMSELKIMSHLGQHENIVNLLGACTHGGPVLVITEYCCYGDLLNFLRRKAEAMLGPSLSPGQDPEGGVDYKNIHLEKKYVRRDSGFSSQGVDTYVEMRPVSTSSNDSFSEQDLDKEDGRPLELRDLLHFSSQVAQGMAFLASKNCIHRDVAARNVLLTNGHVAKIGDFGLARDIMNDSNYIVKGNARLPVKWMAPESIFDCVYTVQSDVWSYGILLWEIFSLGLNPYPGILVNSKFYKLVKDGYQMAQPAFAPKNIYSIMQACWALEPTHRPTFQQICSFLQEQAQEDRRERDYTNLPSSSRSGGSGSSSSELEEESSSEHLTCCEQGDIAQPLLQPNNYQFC

| SMILES | Tumor growth inhibition rate (TGI %) ([1]; 22 days, last administration day, NCI-H460 nude mouse) [%] | tumor growth inhibition (in words, FIG. 1) ([1]; tumor volume vs Control group, Student's t test) | IC50 (CSF-1R (Fms, active)) [nM] | inhibitory activities against CSF-1R (in words) (CSF-1R (Fms, active)) |
| --- | --- | --- | --- | --- |
| COc1ccc(-c2[nH]c3ncc(C#CCCO)cc3c2CN2CCOCC2)cc1 [Example 1, 4-(2-(4-methoxyphenyl)-3-(morpholinomethyl)-1H-pyrrolo[2,3-b]pyridin-5-yl)but-3-yn-1-ol] | 61 | significant tumor growth inhibition | 30 to 100 | potent inhibitory activities |
| COc1cc(-c2[nH]c3ncc(C#CCCO)cc3c2CN2C3CCC2COC3)ccc1OC1COC1 [Example 6, 4-(3-((3-oxa-8-azabicyclo[3.2.1]octan-8-yl)methyl)-2-(3-methoxy-4-(oxetan-3-yloxy)phenyl)-1H-pyrrolo[2,3-b]pyridin-5-yl)but-3-yn-1-ol] | – | – | 10 to 30 | potent inhibitory activities |
| COc1ccc(-c2[nH]c3ncc(C#CCCO)cc3c2CN2CCOCC2)cc1OC [Example 3, 4-(2-(3,4-dimethoxyphenyl)-3-(morpholinomethyl)-1H-pyrrolo[2,3-b]pyridin-5-yl)but-3-yn-1-ol] | – | – | 10 to 30 | potent inhibitory activities |
| OCCC#Cc1cnc2[nH]c(-c3ccc(N4CCC(O)CC4)cc3)c(CN3CCOCC3)c2c1 [Example 5, 1-(4-(5-(4-hydroxybut-1-yn-1-yl)-3-(morpholinomethyl)-1H-pyrrolo[2,3-b]pyridin-2-yl)phenyl)piperidin-4-ol] | – | – | < 10 | potent inhibitory activities |
| OCCC#Cc1cnc2[nH]c(-c3ccc(N4CCOCC4)cc3)c(CN3CCOCC3)c2c1 [Example 4, 4-(3-(morpholinomethyl)-2-(4-morpholinophenyl)-1H-pyrrolo[2,3-b]pyridin-5-yl)but-3-yn-1-ol] | – | – | < 10 | potent inhibitory activities |
| COc1ccc(-c2[nH]c3ncc(C#CCCO)cc3c2CC2CCOCC2)cn1 [Example 9, 4-(2-(6-methoxypyridin-3-yl)-3-((tetrahydro-2H-pyran-4-yl)methyl)-1H-pyrrolo[2,3-b]pyridin-5-yl)but-3-yn-1-ol] | – | – | < 10 | potent inhibitory activities |
| CC(=O)N1CC=C(c2[nH]c3ncc(C#CCCO)cc3c2CC2CCOCC2)CC1 [Example 8, 1-(4-(5-(4-hydroxybut-1-yn-1-yl)-3-((tetrahydro-2H-pyran-4-yl)methyl)-1H-pyrrolo[2,3-b]pyridin-2-yl)-3,6-dihydropyridin-1(2H)-yl)ethan-1-one] | – | – | < 10 | potent inhibitory activities |
| CC(=O)N1CC=C(c2[nH]c3ncc(C#CCCO)cc3c2CC(C)C)CC1 [Example 7, 1-(4-(5-(4-hydroxybut-1-yn-1-yl)-3-isobutyl-1H-pyrrolo[2,3-b]pyridin-2-yl)-3,6-dihydropyridin-1(2H)-yl)ethan-1-one] | – | – | < 10 | potent inhibitory activities |
| COc1ccc(-c2[nH]c3ncc(C#CCCO)cc3c2CN2C3CCC2COC3)cc1 [Example 2, 4-(3-((3-oxa-8-azabicyclo[3.2.1]octan-8-yl)methyl)-2-(4-methoxyphenyl)-1H-pyrrolo[2,3-b]pyridin-5-yl)but-3-yn-1-ol] | – | – | 10 to 30 | potent inhibitory activities |
